Reference: PMC6361113 (Cancer chemotherapy and pharmacology, 2017)
“And” between values parts separate entries of the source, which are not always exact repeats. Equal entries are not always repeated. Where two headings read alike, the source gives them in different places. Blank lines part the entries; values can stand above or below the compound they belong to.

Columns and labels:
[1] = cited from earlier work
[2] = cited from earlier work; remark: listed apart in the source
[3] = Population pharmacokinetic; assay type: in vivo, human
[4] = cited from earlier work; remark: listed apart in the source
[5] = assay type: in vivo, human
[6] = cited from earlier work; remark: listed apart in the source
[7] = olaparib tablets 200 mg, noncompartmental; cited from earlier work
blood/PMBCs = conditions: in vitro; cited from earlier work
[8] = cited from earlier work; remark: listed apart in the source
[9] = cited from earlier work; remark: listed apart in the source
[10] = n = 4, ref unpublished findings from the drug sponsor (NCT00516724)
[11] = ref unpublished findings from the drug sponsor
[12] = final population PK model, inter-individual variability
[13] = this study, carboplatin pre-treatment
[14] = olaparib monotherapy, clinical trials
[15] = 400 mg capsule dose, estimated range
[16] = 400 mg capsule dose, typical averages
[17] = patients with CLcr = 50–80 mL/min, prescribing information
[18] = prescribing information, 400 mg BID capsules

IIV CL/F bootstrap estimate (%RSE) ([3]; bootstrap, 1000 replicates): 57.0% (7.06%) %CV | IIV Tlag bootstrap estimate (%RSE) ([3]; bootstrap, 1000 replicates): 70.7% (19.6%) %CV | IIV V/F bootstrap estimate (%RSE) ([3]; bootstrap, 1000 replicates): 38.4% (9.78%) %CV | BSV on the CL/F parameter explained by carboplatin covariate ([3]; final covariate model): ~2% | IIV CL/F point estimate (%RSE) ([3]; final population PK model, inter-individual (between-subject) variability): 55.0% (7.98%) %CV | IIV Tlag point estimate (%RSE) [3, 12]: 87.1% (13.5%) %CV | IIV V/F point estimate (%RSE) [3, 12]: 37.3% (9.23%) %CV | change in volume of distribution relative to carboplatin pretreatment ([3]; in vivo): No change in volume of distribution | correlation (r) of creatinine clearance with olaparib clearance ([3]; population model): < 0.005 | half-life ([5]; human, plasma, oral, 200 mg): ~3 h | V/F, first 200 mg dose of olaparib alone ([5]; this study, Group A C1D1, before carboplatin): 31.1 L | decrease in olaparib AUCLAST in presence of carboplatin [5, 13]: 1.3 fold | decrease in olaparib CMAX in presence of carboplatin [5, 13]: 1.2 fold
Compound: O=C(c1cc(Cc2n[nH]c(=O)c3ccccc23)ccc1F)N1CCN(C(=O)C2CC2)CC1 [olaparib]
change in olaparib plasma protein binding by carboplatin [1]: no change in olaparib plasma protein binding | lower olaparib CMAX with carboplatin pre-exposure [2, 10]: 14.8% | lower steady state olaparib AUC with carboplatin pre-exposure [2, 10]: 11.0% | lower olaparib AUC with carboplatin pre-exposure [2, 11]: 14% | lower olaparib CMAX with carboplatin pre-exposure [2, 11]: 17% | CL/F point estimate, previous population PK model ([4]; 100 mg olaparib tablets BID with cisplatin and gemcitabine, 23 advanced cancer patients): 6.48 L/h and 6.5 L/h | V/F point estimate, previous population PK model ([4]; 100 mg olaparib tablets BID with cisplatin and gemcitabine, 23 patients): 38.7 L | half-life of first dose olaparib, previous population PK model ([4]; 100 mg olaparib tablets BID with cisplatin and gemcitabine): 4 h | absorption rate (Ka), previous population PK model ([4]; single compartment absorption model): 2 h⁻¹ | patients having hematologic toxicity ([6]; olaparib capsules combined with carboplatin, likely due to carboplatin): 82% | grade 1–2 fatigue [6, 14]: ~30% | grade 1–2 nausea [6, 14]: ~32% | grade 1–2 vomiting [6, 14]: ~20% | CL/F NCA estimate [7]: 6.08 L/h | intracellular olaparib when blood/PMBCs were pretreated with carboplatin (blood/PMBCs): greater intracellular olaparib | clearance [8, 15]: 7.0 to 10.8 L/h | volume of distribution [8, 15]: 107 to 210 L | AUC [8, 16]: 10000 to 70000 ng·h/mL | CMax [8, 16]: 1 to 6.4 µg/mL | CL/F, other literature value [8]: 4.6 L/h | V/F, other literature value [8]: 40.3 L | half-life ([8]; elimination rate calculated over a 72-h period): 12 h | increase in olaparib AUC in mild renal impairment [8, 17]: 1.2 fold | increase in olaparib CMAX in mild renal impairment [8, 17]: 1.5 fold | apparent plasma CL/F [8, 18]: 8.6 (±7.1) L/h | apparent volume of distribution at steady-state (Vss/F) [8, 18]: 167 (±196) L | AUC mean ([8]; tablet dose of 200 mg): 43000 ng·h/mL | CL/F mean ([8]; tablet dose of 200 mg): 7.95 L/h | CMAX mean ([8]; tablet dose of 200 mg): 7 µg/mL | V/F mean ([8]; tablet dose of 200 mg): 146 L

Compound: N.N.O=C([O-])C1(C(=O)[O-])CCC1.[Pt+2] [carboplatin]
terminal plasma half-life [9]: 2 to 3 h | plasma protein binding ([9]; human, in vivo): not plasma protein bound | dose excreted within 12 h ([9]; patients with normal renal function (CLcr > 60 mL/min)): 65%
